In PubChem BioAssay AID1745844 (Carcinogenic Potency Database (CPDB), 2022):
Where “and” joins values, the source holds several entries; their conditions need not be identical. Identical values can stand only once. Calls of active or inactive are those of the source. The rule behind the calls is not given here.

Tested on: rodent lifetime carcinogenesis bioassay, tumor incidence TD50
Experiment: carcinogenic potency in animals, long-term in vivo studies, CPDB compilation (AID 1745844)

## O=NO
hamster, strain Syrian Golden, females, in feed, site: any site (literature study), lesion: one or several types, types not named, dosed 97 weeks, study length 97 weeks
  TD50: 477 mg/kg/day
mouse, strain B6C3F1, females, in drinking water, site: any site (literature study), lesion: several types, types named in the paper, dosed 104 weeks, study length 104 weeks
  TD50: 459 mg/kg/day
mouse, strain B6C3F1, females, in drinking water, site: forestomach, lesion: squamous-cell carcinoma + squamous-cell papilloma, dosed 104 weeks, study length 104 weeks
  TD50: 1610 mg/kg/day
mouse, strain B6C3F1, females, in drinking water, site: lung, lesion: alveolar/bronchiolar adenoma + alveolar/bronchiolar carcinoma, dosed 104 weeks, study length 104 weeks
  TD50: 843 mg/kg/day
mouse, strain B6C3F1, males, in drinking water, site: any site (literature study), lesion: several types, types named in the paper, dosed 104 weeks, study length 104 weeks
  TD50: 9190 mg/kg/day (inactive)
mouse, strain B6C3F1, males, in drinking water, site: lung, lesion: alveolar/bronchiolar adenoma + alveolar/bronchiolar carcinoma, dosed 104 weeks, study length 104 weeks
  TD50: 990 mg/kg/day
mouse, strain C57BL/6, females, in drinking water, site: liver, lesion: several types, types named in the paper, dosed 117 weeks, study length 126 weeks
  carcinogen call: negative (inactive)
mouse, strain C57BL/6, females, in drinking water, site: lung, lesion: one or several types, types not named, dosed 117 weeks, study length 126 weeks
  TD50: 5200 mg/kg/day (inactive)
mouse, strain C57BL/6, females, in feed, site: any site (literature study), lesion: several types, types named in the paper, dosed 52 weeks, study length 69 weeks
  carcinogen call: negative (inactive)
mouse, strain C57BL/6, females, in feed, site: liver, lesion: hepatocellular carcinoma, dosed 52 weeks, study length 69 weeks
  carcinogen call: negative (inactive)
mouse, strain C57BL/6, females, in feed, site: lung, lesion: adenoma, dosed 52 weeks, study length 69 weeks
  carcinogen call: negative (inactive)
mouse, strain C57BL/6, males, in feed, site: any site (literature study), lesion: several types, types named in the paper, dosed 52 weeks, study length 69 weeks
  TD50: 1210 mg/kg/day (inactive)
mouse, strain C57BL/6, males, in feed, site: liver, lesion: hepatocellular carcinoma, dosed 52 weeks, study length 69 weeks
  carcinogen call: negative (inactive)
mouse, strain C57BL/6, males, in feed, site: lung, lesion: adenoma, dosed 52 weeks, study length 69 weeks
  TD50: 1610 mg/kg/day (inactive)
mouse, strain ICR/Jcl, females, in drinking water, site: any site (literature study), lesion: several types, types named in the paper, dosed 109 weeks, study length 109 weeks
  carcinogen call: negative (inactive)
mouse, strain ICR/Jcl, females, in drinking water, site: liver, lesion: one or several types, types not named, dosed 109 weeks, study length 109 weeks
  carcinogen call: negative (inactive)
mouse, strain ICR/Jcl, females, in drinking water, site: lung, lesion: one or several types, types not named, dosed 109 weeks, study length 109 weeks
  TD50: 7230 mg/kg/day (inactive)
mouse, strain ICR/Jcl, males, in drinking water, site: any site (literature study), lesion: several types, types named in the paper, dosed 109 weeks, study length 109 weeks
  carcinogen call: negative (inactive)
mouse, strain ICR/Jcl, males, in drinking water, site: liver, lesion: one or several types, types not named, dosed 109 weeks, study length 109 weeks
  TD50: 25000 mg/kg/day (inactive)
mouse, strain ICR/Jcl, males, in drinking water, site: lung, lesion: one or several types, types not named, dosed 109 weeks, study length 109 weeks
  TD50: 16300 mg/kg/day (inactive)
mouse, strain Swiss CD-1, females, in drinking water, site: liver, lesion: hepatocellular tumor, dosed 34 weeks, study length 125 weeks
  TD50: 744 mg/kg/day (inactive)
mouse, strain Swiss CD-1, females, in drinking water, site: lung, lesion: one or several types, types not named, dosed 34 weeks, study length 125 weeks
  carcinogen call: negative (inactive)
mouse, strain Swiss CD-1, males, in drinking water, site: liver, lesion: hepatocellular tumor, dosed 34 weeks, study length 115 weeks
  carcinogen call: negative (inactive)
mouse, strain Swiss CD-1, males, in drinking water, site: lung, lesion: one or several types, types not named, dosed 34 weeks, study length 115 weeks
  TD50: 103 mg/kg/day (inactive)
mouse, strain VM, females, in drinking water, site: brain, lesion: glioma, dosed 134 weeks, study length 134 weeks
  carcinogen call: negative (inactive)
mouse, strain VM, males, in drinking water, site: brain, lesion: glioma, dosed 113 weeks, study length 113 weeks
  carcinogen call: negative (inactive)
rat, strain Charles River CD (Sprague-Dawley), both sexes, in feed, site: all sites, lesion: malignant lymphoma, dosed 123 weeks, study length 123 weeks
  TD50: 539 mg/kg/day
rat, strain Charles River CD (Sprague-Dawley), both sexes, in feed, site: liver, lesion: angiosarcoma, dosed 123 weeks, study length 123 weeks
  TD50: 5840 mg/kg/day
rat, strain Charles River CD (Sprague-Dawley), both sexes, in feed, site: spleen, lesion: lymphoma, dosed 123 weeks, study length 123 weeks
  TD50: 601 mg/kg/day
rat, strain F344/DuCrj, males, in drinking water, site: forestomach, lesion: one or several types, types not named, dosed 51 weeks, study length 51 weeks
  carcinogen call: negative (inactive)
rat, strain F344/DuCrj, males, in drinking water, site: stomach, glandular, lesion: one or several types, types not named, dosed 51 weeks, study length 51 weeks
  carcinogen call: negative (inactive)
rat, strain Fischer 344, females, in drinking water, site: adrenal gland, lesion: medullary tumor, dosed 104 weeks, study length 128 weeks
  TD50: 163 mg/kg/day
rat, strain Fischer 344, females, in drinking water, site: any site (literature study), lesion: several types, types named in the paper, dosed 104 weeks, study length 104 weeks
  TD50: 74400 mg/kg/day (inactive)
rat, strain Fischer 344, females, in drinking water, site: any site (literature study), lesion: several types, types named in the paper, dosed 104 weeks, study length 120 weeks
  carcinogen call: negative (inactive)
rat, strain Fischer 344, females, in drinking water, site: liver, lesion: hepatocellular carcinoma, dosed 104 weeks, study length 128 weeks
  TD50: 1550 mg/kg/day
rat, strain Fischer 344, females, in drinking water, site: liver, lesion: neoplastic nodule, dosed 104 weeks, study length 128 weeks
  TD50: 185 mg/kg/day
rat, strain Fischer 344, females, in drinking water, site: liver, lesion: several types, types named in the paper, dosed 104 weeks, study length 120 weeks
  carcinogen call: negative (inactive)
rat, strain Fischer 344, females, in drinking water, site: liver, lesion: several types, types named in the paper, dosed 104 weeks, study length 128 weeks
  TD50: 153 mg/kg/day
rat, strain Fischer 344, females, in drinking water, site: mammary tissue, wider than the gland, lesion: one or several types, types not named, dosed 104 weeks, study length 128 weeks
  TD50: 115 mg/kg/day
rat, strain Fischer 344, females, in drinking water, site: thyroid gland, lesion: carcinoma, dosed 104 weeks, study length 128 weeks
  TD50: 163 mg/kg/day
rat, strain Fischer 344, females, in drinking water, site: uterus, lesion: polyp, dosed 104 weeks, study length 128 weeks
  TD50: 218 mg/kg/day
rat, strain Fischer 344, females, in feed, site: any site (literature study), lesion: several types, types named in the paper, dosed 52 weeks, study length 69 weeks
  carcinogen call: negative (inactive)
rat, strain Fischer 344, females, in feed, site: liver, lesion: carcinoma, dosed 104 weeks, study length 130 weeks
  TD50: 470 mg/kg/day
rat, strain Fischer 344, females, in feed, site: liver, lesion: hepatocellular carcinoma, dosed 104 weeks, study length 128 weeks
  TD50: 629 mg/kg/day
rat, strain Fischer 344, females, in feed, site: liver, lesion: hepatocellular carcinoma, dosed 104 weeks, study length 130 weeks
  TD50: 516 mg/kg/day
rat, strain Fischer 344, females, in feed, site: liver, lesion: neoplastic nodule, dosed 104 weeks, study length 128 weeks
  TD50: 164 mg/kg/day
rat, strain Fischer 344, females, in feed, site: liver, lesion: neoplastic nodule, dosed 104 weeks, study length 130 weeks
  TD50: 199 mg/kg/day and 218 mg/kg/day
rat, strain Fischer 344, females, in feed, site: liver, lesion: one or several types, types not named, dosed 52 weeks, study length 69 weeks
  carcinogen call: negative (inactive)
rat, strain Fischer 344, females, in feed, site: liver, lesion: several types, types named in the paper, dosed 104 weeks, study length 128 weeks
  TD50: 141 mg/kg/day
rat, strain Fischer 344, females, in feed, site: liver, lesion: several types, types named in the paper, dosed 104 weeks, study length 130 weeks
  TD50: 124 mg/kg/day and 136 mg/kg/day
rat, strain Fischer 344, males, in drinking water, site: any site (literature study), lesion: several types, types named in the paper, dosed 104 weeks, study length 120 weeks
  carcinogen call: negative (inactive)
rat, strain Fischer 344, males, in drinking water, site: liver, lesion: hepatocellular adenoma + hepatoblastoma + hepatocellular carcinoma, dosed 104 weeks, study length 104 weeks
  TD50: 6550 mg/kg/day
rat, strain Fischer 344, males, in drinking water, site: liver, lesion: hepatocellular carcinoma, dosed 104 weeks, study length 128 weeks
  TD50: 1040 mg/kg/day
rat, strain Fischer 344, males, in drinking water, site: liver, lesion: several types, types named in the paper, dosed 104 weeks, study length 120 weeks
  TD50: 1310 mg/kg/day (inactive)
rat, strain Fischer 344, males, in drinking water, site: liver, lesion: several types, types named in the paper, dosed 104 weeks, study length 128 weeks
  TD50: 946 mg/kg/day
rat, strain Fischer 344, males, in drinking water, site: skin, lesion: fibroma, dosed 104 weeks, study length 104 weeks
  TD50: 667 mg/kg/day (inactive)
rat, strain Fischer 344, males, in feed, site: all sites, lesion: granulocytic leukemia, dosed 115 weeks, study length 115 weeks
  carcinogen call: negative (inactive)
rat, strain Fischer 344, males, in feed, site: all sites, lesion: mononuclear-cell leukemia, dosed 115 weeks, study length 115 weeks
  carcinogen call: negative (inactive)
rat, strain Fischer 344, males, in feed, site: any site (literature study), lesion: one or several types, types not named, dosed 115 weeks, study length 115 weeks
  carcinogen call: negative (inactive)
rat, strain Fischer 344, males, in feed, site: any site (literature study), lesion: several types, types named in the paper, dosed 52 weeks, study length 69 weeks
  carcinogen call: negative (inactive)
rat, strain Fischer 344, males, in feed, site: liver, lesion: neoplastic nodule, dosed 104 weeks, study length 130 weeks
  TD50: 467 mg/kg/day and 674 mg/kg/day
rat, strain Fischer 344, males, in feed, site: liver, lesion: one or several types, types not named, dosed 52 weeks, study length 69 weeks
  carcinogen call: negative (inactive)
rat, strain Fischer 344, males, in feed, site: liver, lesion: several types, types named in the paper, dosed 104 weeks, study length 130 weeks
  TD50: 445 mg/kg/day and 641 mg/kg/day
rat, strain Fischer 344, males, in feed, site: several sites, sites named in the paper, lesion: lymphoma, dosed 115 weeks, study length 115 weeks
  carcinogen call: negative (inactive)
rat, strain Fischer 344, males, in feed, site: testis, lesion: interstitial-cell tumor, dosed 115 weeks, study length 115 weeks
  carcinogen call: negative (inactive)
rat, strain MRC, females, in drinking water, site: any site (literature study), lesion: one or several types, types not named, dosed 67 weeks, study length 122 weeks
  carcinogen call: negative (inactive)
rat, strain MRC, females, in drinking water, site: any site (literature study), lesion: several types, types named in the paper, dosed 84 weeks, study length 104 weeks
  TD50: 57.3 mg/kg/day (inactive)
rat, strain MRC, females, in drinking water, site: liver, lesion: one or several types, types not named, dosed 67 weeks, study length 122 weeks
  carcinogen call: negative (inactive)
rat, strain MRC, males, in drinking water, site: any site (literature study), lesion: one or several types, types not named, dosed 67 weeks, study length 122 weeks
  carcinogen call: negative (inactive)
rat, strain MRC, males, in drinking water, site: any site (literature study), lesion: several types, types named in the paper, dosed 84 weeks, study length 104 weeks
  TD50: 61.9 mg/kg/day (inactive)
rat, strain MRC, males, in drinking water, site: liver, lesion: one or several types, types not named, dosed 67 weeks, study length 122 weeks
  carcinogen call: negative (inactive)
rat, strain Wistar, males, in drinking water, site: liver, lesion: hepatocellular carcinoma, dosed 94 weeks, study length 94 weeks
  carcinogen call: negative (inactive)
rat, strain Wistar, males, in drinking water, site: liver, lesion: one or several types, types not named, dosed 102 weeks, study length 102 weeks
  carcinogen call: negative (inactive)
rat, strain Wistar, males, in drinking water, site: lung, lesion: one or several types, types not named, dosed 94 weeks, study length 94 weeks
  carcinogen call: negative (inactive)
rat, strain Wistar, males, in drinking water, site: nasal cavity, lesion: one or several types, types not named, dosed 94 weeks, study length 94 weeks
  carcinogen call: negative (inactive)
rat, strain Wistar, males, in feed, site: liver, lesion: several types, types named in the paper, dosed 92 weeks, study length 92 weeks
  TD50: 155 mg/kg/day
